Source: the NIST ThermoML archive (doi:10.1021/je034102r)

Assay: molar heat capacity at constant pressure
Settings: 101.33 kPa, Liquid, heat bridge-scanning calorimeter

CCCCn1cc[n+](C)c1.F[P-](F)(F)(F)(F)F [1-butyl-3-methylimidazolium hexafluorophosphate]
Settings	molar heat capacity at constant pressure [J/K/mol]
408.32 K	474.58
408.61 K	473.73
408.74 K	473.45
408.88 K	473.45
409.01 K	473.45
409.14 K	473.73
409.27 K	474.02
409.4 K	474.02
409.53 K	473.73
409.67 K	473.73
409.8 K	474.3
409.93 K	474.58
410.22 K	475.15
410.35 K	474.58
410.48 K	474.3
410.61 K	474.3
410.74 K	474.58
410.88 K	474.3
411.01 K	474.3
411.14 K	474.02
411.27 K	473.73
411.58 K	475.72
411.71 K	475.72
411.84 K	476.01
411.97 K	476.01
412.11 K	475.72
412.24 K	475.15
412.37 K	474.58
412.5 K	474.87
412.63 K	474.58
412.77 K	475.15
412.9 K	475.15
413.18 K	474.58
413.31 K	474.58
413.45 K	474.3
413.58 K	474.3
413.71 K	474.3
413.84 K	474.3
413.97 K	474.02
414.11 K	474.02
414.24 K	474.3
414.53 K	474.58
414.67 K	475.44
414.8 K	476.01
414.93 K	476.29
415.07 K	476.29
415.2 K	476.57
415.33 K	476.01
415.47 K	476.01
415.6 K	475.72
415.73 K	475.44
415.87 K	475.44
416.15 K	475.44
416.29 K	475.44
416.42 K	475.15
416.55 K	474.87
416.69 K	475.15
416.82 K	475.15
416.95 K	475.72
417.08 K	476.01
417.22 K	477.43
417.52 K	476.57
417.65 K	476.86
417.8 K	476.57
417.93 K	476.29
418.06 K	476.29
418.2 K	475.72
418.33 K	475.72
418.46 K	475.72
418.6 K	475.44
418.73 K	476.01
418.86 K	477.14
419.15 K	478.56
419.29 K	477.71
419.42 K	477.14
419.55 K	476.57
419.69 K	476.57
419.82 K	476.29
419.96 K	476.57
420.09 K	476.57
420.22 K	476.29
420.52 K	477.14
420.66 K	476.57
420.79 K	477.14
420.92 K	477.14
421.06 K	477.14
421.19 K	477.43
421.33 K	476.86
421.46 K	476.86
421.59 K	476.86
421.73 K	476.57
421.86 K	476.57
422.15 K	477.14
422.28 K	477.99
422.42 K	478.56
422.55 K	478.28
422.69 K	477.99
422.82 K	477.71
422.95 K	477.71
423.09 K	477.99
423.22 K	478.56
423.52 K	477.71
423.65 K	477.43
423.79 K	477.71
423.92 K	477.71
424.05 K	477.71
424.2 K	477.99
424.34 K	478.28
424.47 K	478.56
424.61 K	478.85
424.74 K	478.28
424.87 K	478.28
425.17 K	478.85
425.3 K	478.85
425.43 K	478.56
425.57 K	478.28
425.7 K	478.85
425.84 K	479.42
425.97 K	480.84
426.11 K	481.4
426.24 K	480.55
426.54 K	479.7
426.67 K	479.42
426.81 K	479.13
426.94 K	479.42
427.08 K	479.42
427.21 K	479.42
427.35 K	479.13
427.48 K	479.13
427.62 K	478.85
427.75 K	479.13
427.89 K	479.13
428.18 K	479.13
428.32 K	479.7
428.45 K	479.98
428.59 K	479.98
428.72 K	479.98
428.85 K	479.7
428.99 K	479.7
429.12 K	479.42
429.26 K	479.42
429.56 K	479.7
429.69 K	479.7
429.83 K	480.27
429.96 K	480.55
430.1 K	480.55
430.23 K	480.55
430.37 K	481.12
430.51 K	480.84
430.65 K	480.55
430.78 K	480.55
430.92 K	480.55
431.21 K	480.27
431.35 K	480.27
431.48 K	480.55
431.62 K	481.12
431.75 K	481.4
431.89 K	481.69
432.02 K	481.12
432.16 K	481.12
432.29 K	480.84
432.59 K	481.12
432.72 K	481.12
432.86 K	481.12
432.99 K	481.12
433.13 K	481.12
433.27 K	481.12
433.4 K	481.12
433.54 K	481.4
433.67 K	482.83
433.81 K	484.25
433.95 K	483.96
434.24 K	482.54
434.37 K	482.54
434.51 K	483.11
434.65 K	483.11
434.78 K	482.83
434.92 K	482.54
435.05 K	482.54
435.19 K	482.26
435.32 K	482.26
435.62 K	482.83
435.76 K	483.11
435.9 K	483.11
436.03 K	483.39
436.17 K	483.39
436.3 K	483.11
436.44 K	483.68
436.57 K	483.96
436.71 K	483.39
436.85 K	483.68
436.99 K	483.11
437.29 K	483.68
437.42 K	483.96
437.56 K	484.53
437.69 K	484.82
437.83 K	485.38
437.96 K	485.1
438.1 K	485.1
438.24 K	484.53
438.37 K	483.96
438.67 K	484.53
438.81 K	484.53
438.94 K	484.82
439.08 K	485.1
439.21 K	484.82
439.35 K	484.82
439.49 K	484.82
439.62 K	485.38
439.76 K	485.95
439.89 K	485.67
440.03 K	485.95
440.32 K	485.1
440.46 K	484.82
440.6 K	484.82
440.73 K	484.82
440.87 K	484.82
441 K	484.82
441.14 K	485.1
441.28 K	484.82
441.41 K	484.53
441.71 K	484.82
441.85 K	485.1
441.98 K	485.1
442.12 K	485.1
442.25 K	485.67
442.39 K	486.52
442.53 K	486.52
442.66 K	485.95
442.8 K	485.95
442.93 K	486.24
443.07 K	486.24
443.37 K	485.95
443.51 K	485.95
443.65 K	485.95
443.78 K	485.95
443.92 K	486.24
444.05 K	485.95
444.19 K	486.24
444.32 K	485.95
444.46 K	486.52
444.76 K	485.95
444.9 K	485.95
445.03 K	485.95
445.17 K	486.24
445.3 K	486.8
445.44 K	486.52
445.58 K	487.37
445.71 K	487.37
445.85 K	486.8
445.99 K	487.09
446.12 K	486.52
446.42 K	487.09
446.55 K	487.09
446.69 K	487.09
446.83 K	487.37
446.96 K	487.94
447.1 K	487.66
447.23 K	487.66
447.37 K	487.37
447.51 K	487.09
447.81 K	489.08
447.94 K	489.65
448.08 K	489.36
448.22 K	488.51
448.35 K	488.23
448.49 K	487.94
448.62 K	487.94
448.76 K	488.23
448.9 K	487.94
449.03 K	487.66
449.17 K	487.94
449.46 K	487.94
449.6 K	487.94
449.74 K	488.79
449.89 K	489.08
450.02 K	489.36
450.16 K	489.08
450.3 K	488.51
450.43 K	488.51
450.57 K	488.23
450.87 K	488.51
451 K	489.08
451.14 K	489.08
451.28 K	488.79
451.41 K	488.51
451.55 K	488.51
451.69 K	488.51
451.82 K	489.08
451.96 K	489.36
452.1 K	489.36
452.23 K	489.08
452.53 K	489.08
452.67 K	488.79
452.8 K	489.65
452.94 K	490.5
453.07 K	491.07
453.21 K	490.5
453.35 K	490.21
453.48 K	489.93
453.62 K	489.65
453.92 K	489.65
454.06 K	489.93
454.2 K	489.93
454.33 K	489.93
454.47 K	489.65
454.61 K	489.65
454.74 K	489.93
454.88 K	489.93
455.02 K	489.93
455.15 K	489.93
455.29 K	489.93
455.59 K	490.5
455.72 K	490.5
455.86 K	490.21
456 K	490.5
456.13 K	490.78
456.28 K	490.78
456.42 K	490.78
456.56 K	490.78
456.69 K	491.07
457 K	491.35
457.13 K	491.35
457.27 K	491.35
457.41 K	491.07
457.54 K	491.07
457.68 K	491.64
457.82 K	491.64
457.95 K	491.64
458.09 K	491.64
458.23 K	492.2
458.37 K	492.49
458.66 K	492.49
458.8 K	492.2
458.93 K	491.92
459.07 K	491.92
459.21 K	491.92
459.35 K	492.2
459.48 K	492.49
459.62 K	492.77
459.76 K	493.34
460.06 K	492.49
460.19 K	492.77
460.33 K	494.19
460.47 K	495.05
460.6 K	494.76
460.74 K	494.48
460.88 K	493.62
461.01 K	493.06
461.15 K	492.77
461.28 K	492.77
461.42 K	493.06
461.72 K	493.34
461.85 K	493.06
461.99 K	492.77
462.12 K	493.06
462.26 K	493.06
462.4 K	492.77
462.53 K	493.34
462.67 K	493.06
462.82 K	493.06
463.12 K	493.34
463.26 K	493.06
463.39 K	493.62
463.53 K	493.34
463.67 K	493.34
463.81 K	493.62
463.94 K	493.62
464.08 K	493.62
464.22 K	493.62
464.35 K	494.48
464.49 K	495.33
464.79 K	497.32
464.92 K	496.18
465.06 K	495.33
465.2 K	494.76
465.34 K	494.48
465.47 K	495.05
465.61 K	495.9
465.75 K	495.9
465.89 K	496.47
466.19 K	494.76
